Where “and” joins values, the source holds several entries; their conditions need not be identical. Equal values may be shown once.
Assays:
Guanylate Cyclase-C = molecular target: T1, Guanylate Cyclase-C (Homo sapiens, UniProt P25092); test: Stimulation of guanylate cyclase-C induced by the toxin STa in T84 cells (cGMP accumulation); format: cell-based; conditions: for inhibition at 50 µM: T84, test compound 50 μM vs STa (1 μM) group, read-out: % of inhibition (Compound x STa); for cGMP, pmol/10 min/mg: test compound 50 μM, 10 min pre-incubation, then STa 1 μM for 10 min, T84 cells, mean ± SEM
T1 construct: host or cells: T84 cells
Description: Protocol for the Stimulation of Guanylate Cyclase-C Induced by the Toxin STa in T84 Cells
Cells from the T84 line (ATCC CCL-248) are subculture according to supplier's instructions. Briefly, after washing the culture flask (75 cm^2) using 3 mL of 0.25% Trypsin solution (w/v) and 0.53 mM EDTA solution to remove the traces of serum, the same volume of trypsin is added to each bottle, and cells are observed under a microscope until detachment of the cellular layer (usually 8-10 minutes).
Preparation of assay plates (12-well plates) follows after adding 8 mL of culture medium (DMEM-F12 supplemented with 10% fetal bovine serum and penicillin-streptomycin (50 IU/mL:50 μg/mL) and centrifugation of the cell homogenate at 2000 rpm for 5 minutes (at 25° C.).
With the aid of a 1 mL pipet connected to a vacuum pump, the supernatant is aspirated and the cells resuspended with culture medium (with necessary volume to maintain the ratio of 1:4, i.e. 1 culture flask originates 4 12-well plates). After homogenization of the cells, with an aid of a pipette, it is added 2 mL of the cell suspension to each well of the plate. The growth occurs in an incubator under controlled conditions (37° C., 5% CO2 atmosphere) until confluence of each well (typically 8-10 days).
Initially, the culture medium is aspirated using a 1 mL pipette connected to a vacuum pump and the cells are washed at least 3 times with 0.5 mL of a Dulbecco Phosphate Buffered Saline (DPBS; 37° C.) using a 1 mL pipette attached to one the vacuum pump. In the sequence, 0.5 mL of DPBS is added in the presence and/or absence of 1-metil-3-isobutyl xanthine (1 mM), dimethylsulfoxide (0.1% v/v) and the test compound and incubated for 10 minutes in an oven (37° C., 5% CO2 atmosphere).
After the incubation period, the cells are stimulated with STa toxin (1 μM, 5 μL) and incubated in an incubator (37° C., 5% CO2 atmosphere) for 10 minutes. After the stimulation period, the volume of the supernatant is aspirated using a 1 mL pipette connected to a vacuum pump and the cGMP is extracted by the addition of a hydrochloric acid solution 0.1 M (0.3 mL, using a pipette), pH 4, under constant stirring (speed 4) in a shaker type “rotator” (Lab-line Instruments, model number 4625), for 20 minutes. After the extraction period, the volume of each well is centrifuged (15000 rpm, 5 minutes, 25° C.) and an aliquot of the supernatant (0.3 mL) is quickly stored in a freezer at −20° C. for the subsequent quantification of the content of cGMP by the immunoassay method developed and described by HORTON et al. (1992) [Horton, J. K.; Martin, R. C.; Kalinka, S.; Cushing, A.; Kitcher, J. P.; O'Sullivan, M. J.; Baxendale, P. M., “Enzime immunoassays for the estimation of adenosine 3′,5′ cyclic monophosphate and guanosine 3′,5′ cyclic monophosphate in biological fluids”. J Immunol Methods 1992, 155:31-40].
The protein precipitate or “pellets” are digested directly by the addition of 0.5 mL of a 0.1 M sodium hydroxide solution, under constant agitation in a shaker type “rotator” (speed 7), for 30 minutes. Posteriorly, this protein fraction is used in the tests to determine proteins, employing a method developed by BRADFORD (1976). [M. M. BRADFORD, “A rapid and sensitive method for the quantitation of microgram quantities of protein utilizing the principle of protein-dye binding”. Analytical Biochemistry, 1976, 72:248-254].

[1] = Determination of absolute bioavailability in Beagle dogs (oral vs intravenous, plasma LC-MS/MS); format: in vivo; conditions: dog, male Beagle dogs, oral powder in capsules 3 mg/kg vs intravenous bolus 1, 3 and 10 mg/kg
Excerpt: Protocol for Determination of Absolute Bioavailability
The study used male Beagle dogs, aged between 2 to 4 years old, weighing between 8 to 12 kg, and kept in food control and disposal of water ad libitum during the study.
The dogs were shaving in the radial portion of the front paws, performing aseptic on site with the aid of moistened gauze with 70% alcohol.
Entered the 21G catheter (one in each paw in the intravenous administration protocol and a single paw in the oral administration protocol) in order to access the cephalic vein.
The blood samples were collected from animals depending on the established sampling times by taking 1.5 mL of blood using a 3 mL syringe. The samples were transferred to heparinized tube collection.
c) Route of Administration
The administration of the study compounds was made orally and intravenously.
The intravenous administration of the compounds was carried out in bolus, and has through one of the cephalic veins of dogs. Concentrations were administered 1 mg/kg; 3 mg/kg and 10 mg/kg in one, on different days.
The oral administration of the drug was provided as a powder in capsules at the dose of 3 mg/kg, which were all completely ingested by dogs.
For the intravenous administration, the blood samples (1.5 ml) were collected in the following predetermined time intervals: 0, 0.033, 0.083, 0.17, 0.25, 0.33, 0 5; 1; 2; 3; 4; 6; 8; 12 and 24 hours.
For the oral administration, the blood samples (1.5 ml) were collected in the following predetermined time intervals: 0, 0.33, 0.67, 1, 1.5, 2, 3, 4, and 6, 8, 12 and 24 hours.
The compounds tested are II, IV, VI, and XI; described in TABLE 1.
The heparinized tubes collections were placed in a centrifuge and were processed for 10 minutes at 2500 rpm per minute. The plasma was separated and put into other tubes. The plasma was analyzed by Liquid chromatography-tandem mass spectrometry (LC-MS/MS).

T1 sequence (P25092 24-1073): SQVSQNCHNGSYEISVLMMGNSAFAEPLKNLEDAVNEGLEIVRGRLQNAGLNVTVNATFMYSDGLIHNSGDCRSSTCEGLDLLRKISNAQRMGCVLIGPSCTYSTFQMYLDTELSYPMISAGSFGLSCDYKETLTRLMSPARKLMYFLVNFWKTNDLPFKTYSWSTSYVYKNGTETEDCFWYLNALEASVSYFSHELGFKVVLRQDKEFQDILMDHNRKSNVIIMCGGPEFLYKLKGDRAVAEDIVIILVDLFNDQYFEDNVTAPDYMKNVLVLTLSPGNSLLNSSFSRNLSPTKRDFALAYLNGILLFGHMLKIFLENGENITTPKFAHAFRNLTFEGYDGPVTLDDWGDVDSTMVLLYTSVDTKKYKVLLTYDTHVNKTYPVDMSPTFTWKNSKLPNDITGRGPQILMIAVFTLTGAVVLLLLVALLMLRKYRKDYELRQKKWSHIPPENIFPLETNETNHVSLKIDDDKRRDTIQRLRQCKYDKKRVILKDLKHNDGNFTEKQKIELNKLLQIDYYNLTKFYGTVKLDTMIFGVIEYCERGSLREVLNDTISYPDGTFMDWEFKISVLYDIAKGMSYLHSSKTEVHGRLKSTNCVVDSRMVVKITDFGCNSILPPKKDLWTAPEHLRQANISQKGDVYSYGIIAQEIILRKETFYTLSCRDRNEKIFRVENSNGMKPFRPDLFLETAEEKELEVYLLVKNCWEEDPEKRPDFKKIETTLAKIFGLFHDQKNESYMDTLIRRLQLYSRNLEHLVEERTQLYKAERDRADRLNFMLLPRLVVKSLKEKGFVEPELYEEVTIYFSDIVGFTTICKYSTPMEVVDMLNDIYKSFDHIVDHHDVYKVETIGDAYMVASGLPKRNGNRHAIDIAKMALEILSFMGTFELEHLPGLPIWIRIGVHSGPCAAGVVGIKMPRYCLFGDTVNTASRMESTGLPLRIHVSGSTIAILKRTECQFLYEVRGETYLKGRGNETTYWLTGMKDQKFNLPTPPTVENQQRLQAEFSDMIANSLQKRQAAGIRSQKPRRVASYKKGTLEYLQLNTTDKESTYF

Compound	inhibition at 50 µM (Guanylate Cyclase-C; cGMP accumulation in T84 cells)	cGMP, pmol/10 min/mg (Guanylate Cyclase-C)	melting point	bioavailability [1]	% of inhibition (Compound x STa) (Guanylate Cyclase-C; test compound 50 μM vs STa (1 μM) group, cGMP accumulation in T84 cells)
Cn1c2c(c(=O)n(C)c1=S)C(c1cc(F)cc(C(F)(F)F)c1)C1=C(N2)c2ccccc2C1=O (stereo not shown) [Compound III, 5-(3-fluoro-5-trifluoromethylphenyl)-1,3-dimethyl-5,11-dihydro-1H-indeno-[2′,1′:5,6]pyrido[2,3-d]pyrimidine-2-thioxo-4,6-dione]	~64%	201.50 ± 44.93 pmol/10 min/mg	313 °C	–	–
Cn1c2c(c(=O)n(C)c1=S)C(c1csc(C(F)(F)F)c1)C1=C(N2)c2ccccc2C1=O (stereo not shown) [Compound II]	~94%	57.50 ± 3.16 pmol/10 min/mg	178 °C	0.16%	–
CCn1c2c(c(=O)n(C)c1=O)C(c1cc(F)cc(C(F)(F)F)c1)C1=C(N2)c2ccccc2C1=O (stereo not shown) [Compound IV, 5-(3-fluoro-5-trifluoromethylphenyl)-1-ethyl-3-methyl-5,11-dihydro-1H-indeno-[2′,1′:5,6]pyrido[2,3-d]pyrimidine-2,4,6-trione]	~86%	146.80 ± 22.94 pmol/10 min/mg	177 °C	0.17%	–
Cn1c2c(c(=O)n(C)c1=O)C(c1ccc3c(c1)OCO3)C1=C(N2)c2ccccc2C1=O (stereo not shown) [Compound IX, 5-(1,3-benzodioxol-5-yl)-1,3-dimethyl-5,11-dihydro-1H-indeno-[2′,1′:5,6]pyrido[2,3-d]pyrimidine-2,4,6-trione]	–	703.50 ± 43.11 pmol/10 min/mg	–	–	–
Cn1c2c(c(=O)n(C)c1=O)C(c1csc(C(F)(F)F)c1)C1=C(N2)c2ccccc2C1=O (stereo not shown) [Compound I]	~62%	210.70 ± 6.11 pmol/10 min/mg	265 °C	–	–
Cn1c2c(c(=O)n(C)c1=S)C(c1cc(C(F)(F)F)cc(C(F)(F)F)c1)C1=C(N2)c2ccccc2C1=O (stereo not shown) [Compound V, 5-(3,5-bistrifluoromethylphenyl)-1,3-dimethyl-5,11-dihydro-1H-indeno-[2′,1′:5,6]pyrido[2,3-d]pyrimidine-2-thioxo-4,6-dione]	~62%	–	314 °C	–	–
CCn1c2c(c(=O)n(C)c1=O)C(c1cc(C(F)(F)F)cc(C(F)(F)F)c1)C1=C(N2)c2ccccc2C1=O (stereo not shown) [Compound VI, 5-(3,5-bistrifluoromethylphenyl)-1-ethyl-3-methyl-5,11-dihydro-1H-indeno-[2′,1′:5,6]pyrido[2,3-d]pyrimidine-2,4,6-trione]	~97%	22.83 ± 3.30 pmol/10 min/mg	166 °C	0.82%	–
Cn1c2c(c(=O)n(C)c1=O)C(c1cccc3c1OCO3)C1=C(N2)c2ccccc2C1=O (stereo not shown) [Compound VII, 5-(1,3-benzodioxol-4-yl)-1,3-dimethyl-5,11-dihydro-1H-indeno-[2′,1′:5,6]pyrido[2,3-d]pyrimidine-2,4,6-trione]	~12%	297.30 ± 39.06 pmol/10 min/mg	–	–	–
Cn1c2c(c(=O)n(C)c1=S)C(c1cccc3c1OCO3)C1=C(N2)c2ccccc2C1=O (stereo not shown) [Compound VIII, 5-(1,3-benzodioxol-4-yl)-1,3-dimethyl-5,11-dihydro-1H-indeno-[2′,1′:5,6]pyrido[2,3-d]pyrimidine-2-thioxo-4,6-dione]	~66%	350.70 ± 35.80 pmol/10 min/mg	310 °C	–	–
Cn1c2c(c(=O)n(C)c1=O)C(c1cccc3nsnc13)C1=C(N2)c2ccccc2C1=O (stereo not shown) [Compound X, 5-(2,1,3-benzothiadiazol-4-yl)-1,3-dimethyl-5,11-dihydro-1H-indeno-[2′,1′:5,6]pyrido[2,3-d]pyrimidine-2,4,6-trione]	~36%	668.40 ± 75.46 pmol/10 min/mg	–	–	–
Cn1c2c(c(=O)n(C)c1=O)C(c1ccc3nsnc3c1)C1=C(N2)c2ccccc2C1=O (stereo not shown) [Compound XI, 5-(2,1,3-benzothiadiazol-5-yl)-1,3-dimethyl-5,11-dihydro-1H-indeno-[2′,1′:5,6]pyrido[2,3-d]pyrimidine-2,4,6-trione]	~70%	171.30 ± 31.68 pmol/10 min/mg	–	0.35%	–
Cn1c2c(c(=O)n(C)c1=S)C(c1ccc3nsnc3c1)C1=C(N2)c2ccccc2C1=O (stereo not shown) [Compound XII, 5-(2,1,3-benzothiadiazol-5-yl)-1,3-dimethyl-5,11-dihydro-1H-indeno-[2′,1′:5,6]pyrido[2,3-d]pyrimidine-2-thioxo-4,6-dione]	~64%	201.50 ± 23.51 pmol/10 min/mg	362 °C	–	–
Cn1c2c(c(=O)n(C)c1=O)C(c1cc(C(F)(F)F)cc(C(F)(F)F)c1)C1=C(N2)c2ccccc2C1=O (stereo not shown) [FPIPP, reference compound]	~94%	53.53 ± 6.22 pmol/10 min/mg and 74.83 ± 13.26 pmol/10 min/mg and 56.25 ± 13.61 pmol/10 min/mg and 81.00 ± 14.38 pmol/10 min/mg	–	–	~86% and ~83% and ~87%
